Laboratory results reported in patent publication US4563527A, “Amidine compounds” (Torii & Co., Ltd., priority 1984, dated 1986).

Experiments:
[1] = system: complement; assay: Inhibition of complement mediated hemolysis; format: cell-based
Experimental: The complement mediated hemolysis is widely used as a means to determine the titration of complement. The principle of this method is based on the fact that hemolysis is caused by the activation of complement, when the latter is added to a complex (immune complex) of erythrocytes and the antibody thereof. The degree of hemolysis varies in proportion to the amount of complement added. Therefore, when a known amount of complement admixed with a C1 esterase inhibitor is used, the hemolysis must be suppressed in proportion to the inhibitory activity.
The anti-C1 esterase (C1r, C1s) activity was determined according to the method of Okamura et al. [K. Okamura, M. Muramatsu and B. Fujii, Biochem. Biophys. […] The figures in Table 2 have the following meanings: […]

[2] = biological target: Thrombin (Homo sapiens, UniProt P00734); assay: biochemical
[3] = biological target: T1, Trypsin (Bos taurus, UniProt P00760); assay: Anti-trypsin activity (hydrolysis of TAME); format: biochemical
T1 sequence (P00760 24-246): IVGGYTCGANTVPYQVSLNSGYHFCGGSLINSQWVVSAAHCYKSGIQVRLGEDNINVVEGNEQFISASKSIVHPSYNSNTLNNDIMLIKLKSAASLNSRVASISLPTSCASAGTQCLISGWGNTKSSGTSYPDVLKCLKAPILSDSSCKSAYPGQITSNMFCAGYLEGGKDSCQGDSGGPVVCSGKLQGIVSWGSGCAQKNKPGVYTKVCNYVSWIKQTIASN
Experimental: (§1) The anti-trypsin, anti-plasmin, anti-kallikrein and anti-thrombin activities were determined according to the method of Muramatsu et al. [M. Muramatus, T. Onishi, S. Makino, Y. Hayashi and S. Fujii, J. of Biochem., 58, 214 (1965)]. The data summarized in Table 1 are expressed in terms of molar concentration (ID50) of the test compound which inhibits 50% of the activity of each enzyme to hydrolyze TAME (tosylalginine methyl ester). The compound No. corresponds to the compound number shown in Examples.

[4] = Median lethal dose (LD50); conditions: in vivo, mouse
[5] = biological target: Plasmin (Homo sapiens, UniProt P00747); assay: Anti-plasmin activity (hydrolysis of TAME); format: biochemical
Sequence of Plasmin (P00747 581-810 limits assumed, species assumed): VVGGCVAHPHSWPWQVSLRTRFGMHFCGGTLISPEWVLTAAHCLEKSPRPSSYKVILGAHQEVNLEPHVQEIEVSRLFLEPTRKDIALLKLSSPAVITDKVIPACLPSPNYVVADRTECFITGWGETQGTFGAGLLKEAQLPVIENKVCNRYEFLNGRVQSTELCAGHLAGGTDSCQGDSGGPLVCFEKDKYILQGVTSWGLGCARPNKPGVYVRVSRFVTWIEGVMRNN
Sequence of Plasmin (P00747 97-580 partner limits assumed, species assumed): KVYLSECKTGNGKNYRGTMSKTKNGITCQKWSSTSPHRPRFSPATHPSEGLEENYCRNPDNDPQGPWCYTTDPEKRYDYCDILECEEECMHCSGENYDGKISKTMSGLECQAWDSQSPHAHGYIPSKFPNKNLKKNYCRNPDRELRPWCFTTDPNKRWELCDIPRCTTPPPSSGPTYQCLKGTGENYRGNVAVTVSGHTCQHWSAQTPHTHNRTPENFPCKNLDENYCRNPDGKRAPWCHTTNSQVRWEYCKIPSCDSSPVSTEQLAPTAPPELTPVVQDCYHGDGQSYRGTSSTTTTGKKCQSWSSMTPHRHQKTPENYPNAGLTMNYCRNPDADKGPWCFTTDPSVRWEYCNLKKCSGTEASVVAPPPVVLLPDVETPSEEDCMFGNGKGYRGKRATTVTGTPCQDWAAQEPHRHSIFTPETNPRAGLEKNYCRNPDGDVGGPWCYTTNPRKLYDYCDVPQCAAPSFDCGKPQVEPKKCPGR
Experimental: The anti-trypsin, anti-plasmin, anti-kallikrein and anti-thrombin activities were determined according to the method of Muramatsu et al. [M. Muramatus, T. Onishi, S. Makino, Y. Hayashi and S. Fujii, J. of Biochem., 58, 214 (1965)]. […] The compound No. corresponds to the compound number shown in Examples.

[6] = biological target: T2, C1s (Homo sapiens, UniProt P09871); assay: Anti-C1s activity (hydrolysis of ATEE); format: biochemical; conditions: molar concentration inhibiting 50% of ATEE hydrolysis; read-out: ID50 C1s (Anti-C1 activity)
T2 sequence (P09871 438-688 limits assumed): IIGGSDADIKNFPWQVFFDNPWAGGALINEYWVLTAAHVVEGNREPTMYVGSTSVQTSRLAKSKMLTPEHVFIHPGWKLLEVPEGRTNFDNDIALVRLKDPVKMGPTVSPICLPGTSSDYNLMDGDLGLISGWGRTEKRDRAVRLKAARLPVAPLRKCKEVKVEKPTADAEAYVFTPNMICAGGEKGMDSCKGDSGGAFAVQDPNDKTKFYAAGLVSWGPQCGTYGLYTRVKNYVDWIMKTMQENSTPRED
T2 sequence (P09871 16-437 partner limits assumed): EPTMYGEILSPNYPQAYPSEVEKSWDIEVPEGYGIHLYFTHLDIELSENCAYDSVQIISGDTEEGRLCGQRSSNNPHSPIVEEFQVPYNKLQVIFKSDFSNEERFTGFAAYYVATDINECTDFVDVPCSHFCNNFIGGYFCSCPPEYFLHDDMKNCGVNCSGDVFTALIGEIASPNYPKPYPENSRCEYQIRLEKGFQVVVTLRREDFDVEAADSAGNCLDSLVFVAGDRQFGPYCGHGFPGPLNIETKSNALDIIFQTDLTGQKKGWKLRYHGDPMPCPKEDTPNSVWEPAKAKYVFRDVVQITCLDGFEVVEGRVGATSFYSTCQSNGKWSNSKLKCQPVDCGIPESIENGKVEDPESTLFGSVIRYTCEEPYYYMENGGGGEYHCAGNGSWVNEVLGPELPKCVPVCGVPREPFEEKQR
Experimental: The anti-C1 esterase (C1r, C1s) activity was determined according to the method of Okamura et al. [K. Okamura, M. Muramatsu and B. Fujii, Biochem. Biophys. Acta, 295, 252-257 (1973)]. The inhibition of complement mediated hemolysis was determined according to the method of Baker et al. [B. R. Baker and E. H. Erickson, J. Med. Chem. 12, 408-414 (1969)]. The figures in Table 2 have the following meanings:
C1s: Molar concentration of the test compound which inhibits 50% of the ability of C1s to hydrolyse ATEE (acetyltyrosin ethyl ester) (ID50).

[7] = system: Kallikrein; assay: Anti-kallikrein activity (hydrolysis of TAME); format: biochemical; conditions: molar concentration inhibiting 50% of TAME hydrolysis; read-out: ID50 kallikrein
Experimental: as §1

[8] = biological target: T3, C1r (Homo sapiens, UniProt P00736); assay: biochemical; conditions: molar concentration inhibiting 50% of AAME hydrolysis; read-out: ID50 C1r (Anti-C1 activity)
T3 sequence (P00736 464-705 limits assumed): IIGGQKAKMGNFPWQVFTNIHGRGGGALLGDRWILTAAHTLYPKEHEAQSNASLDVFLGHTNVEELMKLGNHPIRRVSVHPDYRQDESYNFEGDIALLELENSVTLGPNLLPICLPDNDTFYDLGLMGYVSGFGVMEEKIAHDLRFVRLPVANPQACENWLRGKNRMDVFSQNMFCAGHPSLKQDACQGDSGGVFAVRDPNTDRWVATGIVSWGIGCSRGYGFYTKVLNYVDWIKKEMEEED
T3 sequence (P00736 18-463 partner limits assumed): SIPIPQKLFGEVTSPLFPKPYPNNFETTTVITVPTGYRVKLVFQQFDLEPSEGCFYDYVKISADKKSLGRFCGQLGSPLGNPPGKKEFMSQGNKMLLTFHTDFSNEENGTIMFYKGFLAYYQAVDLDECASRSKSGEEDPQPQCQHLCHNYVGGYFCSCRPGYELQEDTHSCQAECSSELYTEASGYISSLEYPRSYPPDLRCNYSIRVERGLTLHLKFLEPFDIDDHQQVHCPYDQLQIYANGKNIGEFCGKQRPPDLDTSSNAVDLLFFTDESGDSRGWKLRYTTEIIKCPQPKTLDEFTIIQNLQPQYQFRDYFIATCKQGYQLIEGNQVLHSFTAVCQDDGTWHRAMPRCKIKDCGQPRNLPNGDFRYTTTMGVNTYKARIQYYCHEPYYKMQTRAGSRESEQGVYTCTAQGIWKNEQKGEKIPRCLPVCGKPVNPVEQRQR

[9] = system: Forssman shock; assay: Forssman shock; format: in vivo, guinea pig; conditions: test compound 3 mg/kg before intravenous hemolysin; individual male guinea pigs; control died at 278, 318, 296 sec.
Source text: Quite different from other animals, guinea pig has on the surface of its organs a specific antigen called Forssman antigen which specifically reacts with the antibody of sheep erythrocyte. Forssman shock is based on the above principle and is a shock caused by the administration of antibody of sheep erythrocyte to a guinea pig. The Forssman shock was investigated in detail by many researches and it was definitely shown that this shock is a model case where the complement plays the principal part and that the shock is associated with a classical pathway in which the complement system is activated progressively starting from C1. Since the participation of complement in autoimmune diseases has been established, the Forssman shock can be said to be useful means for testing a drug for autoimmune diseases. A drug effective for the treatment of Forssman shock is useful as a drug of autoimmune diseases. [Anti-trypsin, anti-plasmin, anti-kallikrein and anti-thrombin activities]
The experiment was performed according to the method of I. G. Offerness et al. [Biochem. Pharmacol., 27 (14), 1873-1878 (1978)]. Male Hartlay guinea pig of about 300 g in body weight was used. Each guinea pig of the control group was administered intravenously with hemolysin (minimum dose to cause the shock) (commercial hemolysin, 5,000 U as assayed by the method of Ogata) and the time elapsed until death was observed. […]

Row | Compound | Inhibition of complement mediated hemolysis (%) ([1]; 1 × 10^-5) | Inhibition of complement mediated hemolysis (%) ([1]; 1 × 10^-6) | Inhibition of complement mediated hemolysis (%) ([1]; 1 × 10^-7) | inhibition at 10 µM ([2]; figure in parentheses, at 1×10^-5 M, TAME, read-out: percentage inhibition of thrombin) [%] | inhibition at 10 µM ([3]; figure in parentheses, at 1×10^-5 M, TAME, read-out: percentage inhibition of trypsin) [%] | LD50 ([4]; ip, I.P.) [mg/kg] | LD50 ([4]; po, P.O.) [mg/kg] | inhibition at 10 µM ([5]; figure in parentheses, at 1×10^-5 M, TAME, read-out: percentage inhibition of plasmin) [%] | IC50 [6] [nM] | IC50 [7] [nM] | IC50 [8] [nM] | time elapsed until death (survival) in Forssman shock [9] | IC50 ([2]; molar concentration inhibiting 50% of TAME hydrolysis, read-out: ID50 thrombin) [nM] | IC50 ([3]; molar concentration inhibiting 50% of TAME hydrolysis, read-out: ID50 trypsin) [nM] | IC50 ([5]; molar concentration inhibiting 50% of TAME hydrolysis, read-out: ID50 plasmin) [nM]
1 | N=C(N)NCc1ccc(C(=O)Oc2ccc3cc(C(=N)N)ccc3c2)o1 [Compound No. 1, 6-amidino-2-naphthyl 5-guanidinomethyl-furan-2-carboxylate] | 100 | 99 | 75 | 22 | 35 | 100 | 2000 | 15 | 3000 | 5000 | 2000 | Survival | – | – | –
2 | N=C(N)c1ccc2cc(OC(=O)c3ccc(CN)s3)ccc2c1 [Compound No. 31, 6-amidino-2-naphthyl 5-aminomethyl-thiophene-2-carboxylate] | 100 | 98 | 97 | – | – | 200 | 2500 | – | 300 | 400 | 200 | Survival | 1000 | 20 | 400
